Test results: patent US20020132809A1, “Heterocyclic carboxamide derivatives as inhibitors of nitric oxide production” (Fujisawa Pharmaceutical Co. Ltd., priority 1998, published 2002)

| Structure (SMILES) | melting point |
| --- | --- |
| CCCn1c(-c2ccc(-n3ccnc3)cc2)cnc1[C@H](Cc1ccccn1)N(C=O)c1cc2cc(Cl)ccc2o1 [Example 48, (1S)-(5-Chlorobenzo[b]furan-2-yl)-N-[1-[5-[4-(1-imidazolyl)-phenyl]-1-propylimidazol-2-yl]-2-(2-pyridyl)ethyl]formamide] | 173 to 175 °C |
| Cn1c(-c2ccc(-c3ccncc3)cc2)cnc1[C@H](Cc1ccccn1)N(C=O)c1cc2cc(Cl)ccc2o1 [Example 37, (1S)-(5-Chlorobenzo[b]furan-2-yl)-N-[1-[1-methyl-5-[4-(4-pyridyl)-phenyl]imidazol-2-yl]-2-(2-pyridyl)ethyl]formamide] | 135 to 140 °C |
| COc1ccc2oc(N(C=O)[C@@H](Cc3ccccn3)c3ncc(-c4ccc(-n5ccnc5)cc4)n3C)cc2c1 [Example 51, (1S)-N-[1-[5-[4-(1-Imidazolyl)phenyl]-1-methylimidazol-2-yl]-2-(2-pyridyl)ethyl](5-methoxybenzo[b]furan-2-yl)formamide] | 151 to 153 °C |
| Cn1c(-c2ccc(N3CCOCC3)cc2)cnc1[C@H](Cc1ccccn1)N(C=O)c1nc2cc(Cl)ccc2s1 [Example 6, (1S)-(5-Chlorobenzothiazol-2-yl)-N-[1-[1-methyl-5-(4-morpholinophenyl)imidazol-2-yl]-2-(2-pyridyl)ethyl]formamide] | 96 to 99 °C |
| COc1ccc2oc(N(C=O)[C@@H](Cc3ccccn3)c3ncc(-c4ccc(N5CCOCC5)cc4)n3C)cc2c1 [Example 3, (1S)-(5-Methoxybenzo[b]furan-2-yl)-N-[1-[1-methyl-5-(4-morpholinophenyl)imidazol-2-yl]-2-(2-pyridyl)ethyl]formamide] | 122 to 124 °C |
| Cn1c(-c2ccc(-n3cnc4ccccc43)cc2)cnc1[C@H](Cc1ccccn1)N(C=O)c1cc2ccccc2[nH]1 [Example 31, (1S)-N-[1-[5-[4-(1-Benzimidazolyl)phenyl]-1-methylimidazol-2-yl]-2-(2-pyridyl)ethyl](indol-2-yl)formamide] | 233 to 237 °C |
| COc1ccc2oc(N(C=O)[C@@H](Cc3ccccn3)c3ncc(-c4ccc([N+](=O)[O-])cc4)n3C)cc2c1 [Compound (f), (1S)-(5-methoxybenzo[b]furan-2-yl)-N-[1-[1-methyl-5-(4-nitrophenyl)imidazol-2-yl]-2-(2-pyridyl)ethyl]formamide] | 210 to 211 °C |
| Cn1c(-c2ccc(-n3ccnc3)cc2)cnc1[C@H](Cc1ccccn1)N(C=O)c1cc2cccnc2o1 [Example 27, (1S)-(Furo[2,3-b]pyridin-2-yl)-N-[1-[5-[4-(1-imidazolyl)phenyl]-1-methylimidazol-2-yl]-2-(2-pyridyl)ethyl]formamide] | 108 to 110 °C |
| Cn1c(-c2ccc(-n3ccnc3)cc2)cnc1[C@H](Cc1ccccn1)N(C=O)c1cc2cc(F)ccc2o1 [Example 54, (1S)-(5-Fluorobenzo[b]furan-2-yl)-N-[1-[5-[4-(1-imidazolyl)-phenyl]-1-methylimidazol-2-yl]-2-(2-pyridyl)ethyl]formamide] | 180 to 182 °C |
| Cn1c(-c2ccc(-n3ccnc3)cc2)cnc1[C@H](Cc1ccccn1)N(C=O)c1cc2cc(Cl)ccc2o1 [Example 49, (1S)-(5-Chlorobenzo[b]furan-2-yl)-N-[1-[5-[4-(1-imidazolyl)-phenyl]-1-methylimidazol-2-yl]-2-(2-pyridyl)ethyl]formamide] | 63 to 73 °C |
| Cn1c(-c2ccc(-n3ccnc3)cc2)cnc1[C@H](Cc1ccccn1)N(C=O)c1cc2cccc(Cl)c2o1 [Example 68, (1S)-(7-Chlorobenzo[b]furan-2-yl)-N-[1-[5-[4-(1-imidazolyl)phenyl]-1-methylimidazol-2-yl]-2-(2-pyridyl)ethyl]formamide] | 182 to 184 °C |
| COc1ccc2oc(N(C=O)[C@@H](Cc3ccccn3)c3ncc(-c4ccc(-c5ccccc5)cc4)n3C)cc2c1 [Example 9, (1S)-N-[1-[5-(4-Biphenylyl)-1-methylimidazol-2-yl]-2-(2-pyridyl)-ethyl](5-methoxybenzo[b]furan-2-yl)formamide] | 150 to 152 °C |
| CCCn1c(-c2ccc(-n3ccnc3)cc2)cnc1[C@H](Cc1ccncc1)n1c(NC=O)cc2ccccc21 [Example 52, (1S)-N-[1-[5-[4-(1-Imidazolyl)phenyl]-1-propylimidazol-2-yl]-2-(4-pyridyl)ethyl](indol-2-yl) formamide] | 238 to 240 °C (dec.) |
| Cc1nc([C@H](Cc2ccccn2)N(C=O)c2cc3ccccc3[nH]2)n(C)c1-c1ccc(-n2ccnc2)cc1 [Example 23, (1S)-N-[1-[5-[4-(1-Imidazolyl)phenyl]-1,4-dimethylimidazol-2-yl]-2-(2-pyridyl)ethyl](indol-2-yl)formamide] | 156 to 157 °C |
| Cn1c(-c2ccc(-c3cccnc3)cc2)cnc1[C@H](Cc1ccccn1)N(C=O)c1cc2cc(Br)ccc2o1 [Example 35, (1S)-(5-Bromobenzo[b]furan-2-yl)-N-[1-[1-methyl-5-[4-(3-pyridyl)-phenyl]imidazol-2-yl]-2-(2-pyridyl)ethyl]formamide] | 168 to 171 °C |
| Cn1c(-c2ccc(-n3ccnc3)cc2)cnc1[C@H](Cc1ccccn1)N(C=O)c1cc2cc(C=O)ccc2o1 [Example 24, (1S)-(5-Formylbenzo[b]furan-2-yl)-N-[1-[5-[4-(1-imidazolyl)-phenyl]-1-methylimidazol-2-yl]-2-(2-pyridyl)ethyl]formamide] | 194 to 197 °C |
| Cn1c(-c2cccs2)cnc1[C@H](Cc1ccccn1)N(C=O)c1cc2cc(Cl)ccc2o1 [Example 20, (1S)-(5-Chlorobenzo[b]furan-2-yl)-N-[1-[1-methyl-5-(2-thienyl)-imidazol-2-yl]-2-(2-pyridyl)ethyl]formamide] | 70 to 74 °C |
| Cn1c(-c2ccc(-c3ccccc3)cc2)cnc1[C@H](Cc1ccccn1)N(C=O)c1cc2cc(Br)ccc2o1 [Compound (b), (1S)-N-[1-[5-(4-biphenylyl)-1-methylimidazol-2-yl]-2-(2-pyridyl)ethyl](5-bromobenzo[b]furan-2-yl)formamide] | 180.5 to 181.5 °C |
| Cc1nccn1-c1ccc(-c2cnc([C@H](Cc3ccccn3)N(C=O)c3cc4ccccc4o3)n2C)cc1 [Example 15, (1S)-(Benzo[b]furan-2-yl)-N-[1-[1-methyl-5-[4-(2-methylimidazol-1-yl)phenyl]imidazol-2-yl]-2-(2-pyridyl)ethyl]formamide] | 167 to 171 °C |

Next, values leading:

| melting point | Structure (SMILES) |
| --- | --- |
| 159 to 161 °C | Cc1nccn1-c1ccc(-c2cnc([C@H](Cc3ccccn3)N(C=O)c3cc4cc(Cl)ccc4o3)n2C)cc1 [Example 70, (1S)-(5-Chlorobenzo[b]furan-2-yl)-N-[1[-1-methyl-5-[4-(2-methylimidazol-1-yl)phenyl]imidazol-2-yl]-2-(2-pyridyl)ethyl]formamide] |
| 197 to 199 °C | Cn1c(-c2ccc(-n3ccnc3)cc2)cnc1[C@H](Cc1ccccn1)N(C=O)c1cc2cc(Br)ccc2o1 [Example 46, (1S)-(5-Bromobenzo[b]furan-2-yl)-N-[1-[5-[4-(1-imidazolyl)-phenyl]-1-methylimidazol-2-yl]-2-(2-pyridyl)ethyl]formamide] |
| 175 to 180 °C | Cn1c(-c2ccc(-c3ccccn3)cc2)cnc1[C@H](Cc1ccccn1)N(C=O)c1cc2cc(Cl)ccc2o1 [Example 36, (1S)-(5-Chlorobenzo[b]furan-2-yl)-N-[1-[1-methyl-5-[4-(2-pyridyl)-phenyl]imidazol-2-yl]-2-(2-pyridyl)ethyl]formamide] |
| 125 to 127 °C | Cc1ccc2oc(N(C=O)[C@@H](Cc3ccccn3)c3ncc(-c4ccc(N5CCOCC5)cc4)n3C)cc2c1 [Example 5, (1S)-(5-Methylbenzo[b]furan-2-yl)-N-[1-[1-methyl-5-(4-morpholinophenyl)imidazol-2-yl]-2-(2-pyridyl)ethyl]formamide] |
| 221 to 223 °C | Cn1c(-c2ccc(-n3ccnc3)cc2)cnc1[C@H](Cc1ccccn1)N(C=O)c1cc2cc([N+](=O)[O-])ccc2o1 [Example 50, (1S)-N-[1-[5-[4-(1-Imidazolyl)phenyl]-1-methylimidazol-2-yl]-2-(2-pyridyl)ethyl](5-nitrobenzo[b]furan-2-yl)formamide] |
| 228 to 231 °C | Cn1c(-c2ccc(-n3ccnc3)cc2)cnc1[C@H](Cc1ccccn1)N(C=O)c1cc2cc([N+](=O)[O-])ccc2s1 [Compound (d), (1S)-N-[1-[5-[4-(1-imidazolyl)phenyl]-1-methylimidazol-2-yl]-2-(2-pyridyl)ethyl](5-nitrobenzo[b]thiophen-2-yl)formamide] |
| 190 to 195 °C | CCn1c(-c2ccc(-n3ccnc3)cc2)cnc1[C@H](Cc1ccccn1)N(C=O)c1cc2cc(OC)ccc2o1.Cl.Cl.Cl |
| 85 to 89 °C | CCn1c(-c2ccc(-n3ccnc3)cc2)cnc1[C@H](Cc1ccccn1)N(C=O)c1cc2cc(C(F)(F)F)ccc2o1 [Example 29, (1S)-N-[1-[1-Ethyl-5-[4-(1-imidazolyl)phenyl]imidazol-2-yl]-2-(2-pyridyl)ethyl][5-(trifluoromethyl)benzo[b]furan-2-yl]formamide] |
| 218 to 222 °C | Cn1ccnc1-c1ccc(-c2cnc([C@H](Cc3ccccn3)N(C=O)c3cc4ccccc4[nH]3)n2C)cc1 [Example 22, (1S)-(Indol-2-yl)-N-[1-[5-[4-(1-methylimidazol-2-yl)phenyl]-1-methylimidazol-2-yl]-2-(2-pyridyl)ethyl]formamide] |
| 165 to 169 °C | Cn1c(-c2ccc(-n3ccnc3)cc2)cnc1[C@H](Cc1ccccn1)N(C=O)c1cc2ccc(Cl)cc2o1 [Example 11, (1S)-(6-Chlorobenzo[b]furan-2-yl)-N-[1-[5-[4-(1-imidazolyl)-phenyl]-1-methylimidazol-2-yl]-2-(2-pyridyl)ethyl]formamide] |
| 80 to 84 °C | CCn1c(-c2ccc(-n3ccnc3)cc2)cnc1[C@H](Cc1ccccn1)N(C=O)c1cc2cc(F)ccc2o1 [Example 55, (1S)-N-[1-[1-Ethyl-5-[4-(1-imidazolyl)phenyl]imidazol-2-yl]-2-(2-pyridyl)ethyl](5-fluorobenzo[b]furan-2-yl)formamide] |
| 190 to 200 °C | CCn1c(-c2ccc(-n3ccnc3)cc2)cnc1[C@H](Cc1ccccn1)N(C=O)c1cc2cc([N+](=O)[O-])ccc2o1.Cl.Cl.Cl |
